Laboratory results from PubChem BioAssay (NCI).
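Protocol summary: plate cells (96-well), add compound at 5 concentrations, incubate 48 h, interpolate endpoints linearly. At the TGI there is no net growth.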 *1 amine or outer side, *2 acyl side, *3 side chain or, on linkers, in order; H or OH if unused. Where a SMILES comes first, the peptide text is derived from it. [ ]: non-standard residue; d: D form. The star is where a group is joined. ξ: configuration not given here. NMeY = CN[C@@H](Cc1ccc(O)cc1)C(=O)O; Ethylenediamine = C(CN[*:2])N[*:1]; ξNMeL = CNC(CC(C)C)C(=O)O; Cbz = O=C(OCc1ccccc1)*; Lac = C[C@H](O)C(=O)O; ξA = CC(N)C(=O)O

What was measured:
Test in all cases: NCI-60 cell line screen, 48 h
HOP-62 NSCLC = test system: HOP-62 NSCLC
786-0 renal = test system: 786-0 renal
LOX IMVI melanoma = test system: LOX IMVI melanoma
DMS 114 small cell lung = test system: DMS 114 small cell lung
LXFL 529 NSCLC = test system: LXFL 529 NSCLC
HOP-18 NSCLC = test system: HOP-18 NSCLC
M19-MEL melanoma = test system: M19-MEL melanoma
DMS 273 small cell lung = test system: DMS 273 small cell lung
SNB-78 CNS = test system: SNB-78 CNS
KM20L2 colon = test system: KM20L2 colon
DLD-1 colon = test system: DLD-1 colon

| SMILES | TGI (HOP-62 NSCLC) | TGI (786-0 renal) | TGI (LOX IMVI melanoma) | further results |
| --- | --- | --- | --- | --- |
| O=C1c2c(O)cc(O)cc2C(C2OC(CO)C(O)C(O)C2O)c2cc(CO)cc(O)c21 (stereo not given) | > 100 µM | > 100 µM | – | – |
| CC(C)=NNc1snnc1C(N)=O | > 100 µM | > 100 µM | > 100 µM | – |
| Cc1c[nH]c(C(=O)O)c1-c1cccn1-c1ccc(Cl)cc1[N+](=O)[O-] | > 100 µM | > 100 µM | > 100 µM | – |
| O=c1[nH]nc(-c2ccccc2)n1/N=C/c1ccco1 | > 100 µM | > 100 µM | > 100 µM | – |
| CCN(CC)Cc1ccccc1CC(=O)N1c2ccccc2C(=O)Nc2cccnc21 | > 100 µM | > 100 µM | > 100 µM | – |
| CC(=O)c1c(SCCN2CCOCC2)n(-c2ccccc2)c(=S)n(-c2ccccc2)c1=O | > 65 µM | 26.4 µM | 26 µM | – |
| c1ccc2c(c1)nc1n2CSCC1 | > 100 µM | > 100 µM | > 100 µM | – |
| CNC(=O)N(CCC#N)CCN(C(=O)N(C)C)c1ccccc1 | > 100 µM | > 100 µM | > 100 µM | – |
| Cn1c(=O)c2sc3c4sc5c(=O)n(C)c6ccccc6c5c4sc3c2c2ccccc21 | > 100 µM | > 100 µM | – | – |
| COc1ccc2c(c1)CC1COc3cc(OC)ccc3C1O2 (stereo not given) | > 100 µM | > 100 µM | > 100 µM | – |
| Cc1cc(S(=O)(=O)Nc2nnc3c4ccccc4cnn23)c(S)cc1Cl | > 100 µM | > 100 µM | > 100 µM | – |
| CN(C)C1(N(C)C)Oc2c(c(=O)n(C)c(=O)n2C)C(c2ccc(C(F)(F)F)cc2)C1(F)F (stereo not given) | > 100 µM | > 100 µM | > 100 µM | – |
| CC(=O)OC1OC(c2ccoc2)C[C@@]12C1CCC3O[C@]3(C)[C@]1(C)[C@H](OC(C)=O)[C@H](OC(C)=O)[C@H]2C (stereo not given in full) | > 37.5 µM | > 37.5 µM | > 37.5 µM | – |
| O=C1c2c(Br)sc(Br)c2[C@@H](Cl)[C@H]1Cl | 35.5 µM | 52.5 µM | 51 µM | – |
| CNCCCNC(=S)Cn1cc(C)c(=O)[nH]c1=O | > 100 µM | > 100 µM | > 100 µM | – |
| Cc1csc(NNC(N)=O)n1 | > 100 µM | > 100 µM | > 100 µM | – |
| C=C(Cl)/C(=C\Cl)CCC(Cl)C(C)C (stereo not given) | > 100 µM | > 100 µM | > 100 µM | – |
| O/N=C1\CC2(N3CCOCC3)CCC1(c1ccccc1)CC2 | > 100 µM | > 100 µM | > 100 µM | – |
| O=C1CNC(=O)/C(=C/c2c[nH]c3ccccc23)N1 | > 100 µM | > 100 µM | > 100 µM | – |
| O=C1CCC(=O)N1CNc1ccc2c(c1)S(=O)(=O)c1ccccc1O2 | > 100 µM | > 100 µM | > 100 µM | – |

| SMILES | TGI (HOP-62 NSCLC) | TGI (786-0 renal) | TGI (LOX IMVI melanoma) | further results |
| --- | --- | --- | --- | --- |
| Cc1ccc(/C=C2/N=C(N/N=C\C(O)C(O)C(O)CO)NC2=O)cc1 (stereo not given) | > 100 µM | > 100 µM | > 100 µM | – |
| O=C(c1ccco1)N(C(=S)N1CCN(c2ccccc2)CC1)C1CCCCC1 | > 100 µM | > 100 µM | > 100 µM | TGI (DMS 114 small cell lung): > 100 µM; TGI (LXFL 529 NSCLC): > 100 µM; TGI (HOP-18 NSCLC): > 100 µM; TGI (M19-MEL melanoma): > 100 µM; TGI (DMS 273 small cell lung): > 100 µM; TGI (SNB-78 CNS): > 100 µM; TGI (KM20L2 colon): > 100 µM; TGI (DLD-1 colon): > 100 µM |
| CN(C)CCNCc1ccc2c(-c3ccccc3)nc3cc(Cl)c(Cl)cc3n12 | 27.4 µM | 15.2 µM | 14.9 µM | – |
| O=[N+]([O-])c1ccc(-n2nc3ccc4c(no[n+]4[O-])c3[n+]2[O-])c([N+](=O)[O-])c1 | 10.1 µM | 7.97 µM | 4.33 µM | – |
| NC(=O)CN1CC(C2=C(O)CN(CC(N)=O)C2=O)=CC1=O | > 100 µM | > 100 µM | > 100 µM | – |
| O/N=C(/C(Cl)=C(Cl)Cl)C(Cl)Cl | 46.9 µM | 34 µM | 37.3 µM | – |
| Cc1cccc(NC(=O)O/N=C(\Cl)C(C)C)c1 | 34.5 µM | 4.12 µM | 3.67 µM | – |
| Cc1cc(C)c2c(n1)S(=O)(=O)N(CCCN1CCN(c3cccc(Cl)c3)CC1)/C(=C(\O)c1ccccc1)C2=O | > 100 µM | > 100 µM | > 100 µM | – |
| N#CCCN(CCC#N)c1ccc(C(N=Nc2ccc(Cl)cc2)=Nc2ccccc2)cc1 | 28.2 µM | 28 µM | – | – |
| Cc1ccc(/C=C/C(=N/NC(=O)N/N=C(/C=C/c2ccc(C)cc2)C(C)C)C(C)C)cc1 | > 10 µM | > 10 µM | – | – |
| Cc1c(O)c(OC2OC(CO)C(O)C(O)C2O)cc2c1C=C[C@@H]1[C@@]2(C)C(=O)C[C@]2(C)[C@@H]([C@@](C)(O)C(O)/C=C/C(C)(C)O)[C@H](O)C[C@@]12C (stereo not given in full) | > 100 µM | > 100 µM | > 100 µM | – |
| CC(=O)NC1C(OC(C)C(=O)NC(C(=O)NC(CCC(=O)NCCCNC2c3ccccc3Nc3cccc([N+](=O)[O-])c32)C(N)=O)C(C)C)C(O)C(CO)OC1(C)OCc1ccccc1 (stereo not given) | 5.87 µM | 2.35 µM | 4.6 µM | – |
| O=C(O)Cc1ccc(Nc2nc3ccccc3nc2C(=O)O)cc1 | > 100 µM | > 100 µM | > 100 µM | – |
| COc1ccc(C[C@@H](C(=O)NCCNC(=O)C(CC(C)C)N(C)C(=O)[C@@H]2CCCN2C(=O)[C@H](C)O)N(C)C(=O)[C@@H]2CCCN2C(=O)[C@H](CC(C)C)NC(=O)C(C)NC(=O)OCc2ccccc2)cc1 (stereo not given in full) (Cbz-[ξA]LP[NMeY](Me)-{Ethylenediamine-ξNMeL-Pro-Lac}) | > 100 µM | > 100 µM | > 100 µM | – |
| COc1cc2cc(C(=O)N3CC(CCl)c4ccc([N+](C)(C)Cc5ccc([N+](=O)[O-])cc5)cc43)[nH]c2c(OC)c1OC (stereo not given) | > 100 µM | 6.54 µM | – | – |
| CN(CCNC(=O)c1c[nH]c2c1ccc1ccccc12)CCNC(=O)c1c[nH]c2c1ccc1ccccc12 | 6.03 µM | 2.87 µM | 3.09 µM | – |
| S=C=Nc1ccc(CSc2nc3ccccc3[nH]2)cc1 | 32.1 µM | 37.5 µM | 35.6 µM | – |
| CSc1nc(Nc2ccccc2Cl)c2c(N)nn(C)c2n1 | > 100 µM | > 100 µM | > 100 µM | – |
| CCOc1ccccc1NC(=O)C(=O)C(/C(=N/N)C(=O)OC)c1nc2ccc([N+](=O)[O-])cc2[nH]c1=O (stereo not given) | > 100 µM | > 100 µM | > 100 µM | – |
